Results published in patent US6180388A, “Enzymes and micro organisms with amidase activity which hydrolyze polyamides” (Rhone-Poulenc Fibres et Polymeres S.A., priority 1995, dated 2001).

Tests used:
[1] = tested on: Comamonas acidovorans N 12; test: Enzymatic hydrolysis of PA 6.6 oligomers, activity of the wild-type microorganism; format: cell-based; conditions: 28° C., 10.5 mmol/l phosphate buffer pH 7.5
From the text: 2.2 ENZYMATIC HYDROLYSIS--MEASUREMENT OF ACTIVITY OF THE WILD-TYPE MICROORGANISM: […]

[2] = polyamide 66 labeled with carbon 14; cited from earlier work

Molecule: NCCCCCCNC(=O)CCCCC(=O)NCCCCCCNC(=O)CCCCC(=O)O [ABAB]
- hydrolysis ABAB → BAB + A ([1]; substrate 1.4 g/l): 410 mg of BAB/h.g of dry cells

Molecule: O=C(O)CCCCC(=O)NCCCCCCNC(=O)CCCCC(=O)O [ABA]
- hydrolysis ABA → AB + A ([1]; substrate 2.6 g/l): 215 mg of AB/h.g of dry cells

Molecule: NCCCCCCNC(=O)CCCCC(=O)O [AB]
- hydrolysis AB → A + B ([1]; substrate 1.4 g/l): 280 mg of A/h.g of dry cells

Molecule: trypsin [reference compound]
- degradation of polyamide 66 [2]: degrade polyamide 66 slightly

B1: papain: known enzyme of the prior art (protein, UniProt P00784 134-345, looked up)
Papain: IPEYVDWRQKGAVTPVKNQGSCGSCWAFSAVVTIEGIIKIRTGNLNEYSEQELLDCDRRSYGCNGGYPWSALQLVAQYGIHYRNTYPYEGVQRYCRSREKGPYAAKTDGVRQVQPYNEGALLYSIANQPVSVVLEAAGKDFQLYRGGIFVGPCGNKVDHAVAAVGYGPNYILIKNSWGTGWGENGYIRIKRGTGNSYGVCGLYTSSFYPVKN
- degradation of polyamide 66 [2]: degrade polyamide 66 slightly
